Patent publication US11883383B2, “Pharmaceutically acceptable salts of [3-(4- {2-butyl-1-[4-(4-chloro-phenoxy)-phenyl]-1H-imidazol-4-yl} -phenoxy)-propyl]-diethyl-amine” (vTv Therapeutics LLC, priority 2018, dated 2024)
Where two headings read alike, the source gives them in different places.

Tests used:
Assay type in all cases: physicochemical
[1] = Stoichiometry (acid/freebase) by 1H NMR or HPLC/IC
Description: Solution NMR was collected on Bruker 500M NMR Spectrometer using DMSO-d6 and CD3OD as solvents.
Agilent 1100 HPLC was utilized to analyze the purity and stoichiometry, with detailed method listed in below.
IC method for counter-ion content measurement is listed below.
(§1) All hits were further characterized by TGA and DSC, with the stoichiometry determined by ^1H NMR or HPLC/IC. Based on the characterization data in Table 2 below, most of them were considered to be anhydrates.

[2] = Thermogravimetric analysis (TGA) weight loss of crystalline hits; details: for Speculated Form: based on TGA/DSC characterization data
Description: (§2) TGA data were collected using a TA Q500 and Q550 from TA Instruments. DSC was performed using a TA Q2000 from TA Instruments. DSC was calibrated with Indium reference standard and the TGA was calibrated using nickel reference standard.
as §1

[3] = Differential scanning calorimetry (DSC) endotherms of crystalline hits; details: for DSC Endo. (onset, ° C.): onset temperature; for DSC Endo., peak temperature: peak temperature (footnote *)
Description: as §2, §1

[4] = Storage of the solid salt at ambient conditions (physical stability / hygroscopicity)
Description: One mesylate crystal form was obtained via screening. Mesylate Type A was generated via reactive crystallization (molar ratio of 1:1) in ethyl acetate/hexane (1:2, v/v) at RT.

SMILES	Stoichiometry (acid/base) [1]	Speculated Form [2]	TGA Wt. Loss (%) ([2]; up to 60° C.)	DSC Endo. (onset, ° C.) [3] [°C]	TGA Wt. Loss (%) ([2]; up to 130° C.)	DSC Endo., peak temperature [3] [°C]	TGA Wt. Loss (%) [2]	Storage at ambient conditions ([4]; ambient conditions)	Hygroscopicity / stability under ambient conditions, as suggested by the gel conversion ([4]; ambient conditions, inferred from conversion to gel)	Physical stability of the sample after storage at ambient conditions ([4]; solid, storage at ambient conditions)
CCCCc1nc(-c2ccc(OCCCN(CC)CC)cc2)cn1-c1ccc(Oc2ccc(Cl)cc2)cc1.O=C(O)C(O)C(O)C(=O)O [L-Tartrate Type A]	1.00	Hydrate	2.1 up to %	76.4						
CCCCc1nc(-c2ccc(OCCCN(CC)CC)cc2)cn1-c1ccc(Oc2ccc(Cl)cc2)cc1.O=C(O)[C@@H](O)[C@H](O)[C@H](O)[C@@H](O)C(=O)O [Galactarate Type A]	0.98	Anhydrate		158.4	0.6 up to %	106.3				
CCCCc1nc(-c2ccc(OCCCN(CC)CC)cc2)cn1-c1ccc(Oc2ccc(Cl)cc2)cc1.Cl [HCl salt Type A]	1.33	Anhydrate		167.0			negligible			
CCCCc1nc(-c2ccc(OCCCN(CC)CC)cc2)cn1-c1ccc(Oc2ccc(Cl)cc2)cc1.O=C(O)C[C@H](O)C(=O)O [L-Malate Type A]	1.11	Anhydrate		67.8			negligible			
CCCCc1nc(-c2ccc(OCCCN(CC)CC)cc2)cn1-c1ccc(Oc2ccc(Cl)cc2)cc1.O=C(O)C(=O)O [Oxalate Type A]	1.12	Anhydrate		109.5			negligible			
CCCCc1nc(-c2ccc(OCCCN(CC)CC)cc2)cn1-c1ccc(Oc2ccc(Cl)cc2)cc1.O=C(O)CNC(=O)c1ccccc1 [Hippurate Type A]	0.98	Anhydrate		72.7		44.3	negligible			
Br.CCCCc1nc(-c2ccc(OCCCN(CC)CC)cc2)cn1-c1ccc(Oc2ccc(Cl)cc2)cc1 [HBr salt Type A]	1.05	Anhydrate		169.9			negligible			
CCCCc1nc(-c2ccc(OCCCN(CC)CC)cc2)cn1-c1ccc(Oc2ccc(Cl)cc2)cc1.CS(=O)(=O)O [Mesylate Type A]								+	highly hygroscopic and unstable	converted to gel
